Experimental data: patent US20090123940A1, “MOLECULES INVOLVED IN SYNAPTOGENESIS AND USES THEREFOR” (THE JOHNS HOPKINS UNIVERSITY, priority 2007, published 2009)
Ends that are not written are not given here.

What was measured:
Narp = molecular target: T1, Narp (Rattus norvegicus, UniProt P97738); assay: In vitro binding (GST pull down) with myc-Narp
T1 construct: GST-tagged GluR1-12mer (GST-G1-12mer) and myc-tagged full length Narp; made in house; host or cells: 293T cells (myc-Narp, cleared lysate); E. coli (GST fusions, pGEX-4T-2)
T1 sequence (P97738 15-432): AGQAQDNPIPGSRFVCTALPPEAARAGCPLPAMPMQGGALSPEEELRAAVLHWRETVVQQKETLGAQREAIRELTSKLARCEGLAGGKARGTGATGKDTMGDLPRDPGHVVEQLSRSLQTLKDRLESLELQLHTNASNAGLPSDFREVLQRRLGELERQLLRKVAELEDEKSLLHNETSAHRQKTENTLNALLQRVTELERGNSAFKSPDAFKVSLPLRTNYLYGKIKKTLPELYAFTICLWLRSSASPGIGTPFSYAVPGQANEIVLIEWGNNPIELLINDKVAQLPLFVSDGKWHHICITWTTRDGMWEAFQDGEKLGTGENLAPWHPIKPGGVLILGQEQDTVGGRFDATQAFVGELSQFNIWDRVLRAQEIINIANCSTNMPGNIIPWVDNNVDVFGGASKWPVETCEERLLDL
Procedure: In Vitro Binding. Polynucleotides encoding NAR fragments were subcloned into pGEX-4T-2 vector (Amersham) in the EcoRI and SalI sites. The constructs were confirmed by restriction enzyme digestion, DNA sequencing and fusion protein expression. GST-fusion proteins were purified by bacterial inoculation of one clone containing GST-fusion protein plasmid into 5 mL of LB liquid medium and cultured at 37 C overnight. Cultured bacteria was transferred into 400 mL of LB liquid medium and cultured at 30 C for 3 hours. Protein expression was induced with 5 mM IPTG and the bacteria were cultured at 30 C for another 2 hours. A bacterial pellet was collected and resuspended in 10 mL of lysis buffer (pH 7.4 PBS containing 10 mM sodium pyrophosphate, 1 mM sodium orthovanadate, 1% triton and 0.1% PMSF), sonicated for 10 seconds, 3 times at 4 C. Debris was pelleted with centrifugation at 12,000 rpm at 4 C for 10 minutes. The supernatant was incubated with Glutathione Sepharose 4B beads (Pharmacia) with agitation at 4 C for 2 hours. Beads were washed with lysis buffer+1% triton+0.1% PMSF twice; lysis buffer+PMSF twice; PBS+0.5M NaCl once; and PBS twice. The fusion protein bound beads were then used in the in vitro binding assay. Purified Narp protein preparation was accomplished by splitting 293T cells is into 100 mm culture dishes at the density of 5×10^5 cells/mL. […]

[1] = system: cultured cerebellar Purkinje cells; assay: Basal electrophysiological properties and Ca2+ imaging in cultured cerebellar Purkinje cells; type: cell-based, mouse; conditions: TAPI-2 10 μM; GM6001 1 μM; GM6001 control 1 μM; mean ± SEM
Procedure: (§1) Recording and Ca^2+ imaging in cerebellar cultures. Cultures of embryonic mouse cerebellum were prepared as previously described and recordings were performed according to our previously published method (Leitges et al., Neuron 44:585-94, 2004). […]. Test pulses were delivered using negative current pulses (300-700 nA, 30-80 msec duration). LTD-inducing pairing stimuli consisted of six, 3-s-long depolarizations to 0 mV, each delivered together with a test pulse of glutamate.
(§2) Membrane currents were recorded with an Axopatch 200A amplifier, and digitized at 10 kHz for exogenous glutamate responses and 20 kHz for mEPSCs. Signals were lowpass filtered at 5 kHz (1 kHz for mEPSCs) and acquired using Axograph X software (Axograph Scientific, Sydney, Australia). Recordings in which Rinput or Rseries varied by more than 10% were excluded from the analysis. For analysis of mEPSCs, Axograph X mini analysis software was used. This detected events based on closeness of fit of the mEPSC to a sliding template. Events smaller than − ? 4 pA were discarded. A separate template was created for each recording by averaging 30 of its most unambiguous mEPSCs as selected by eye.
Bis-Fura-2 ratio imaging of intracellular free Ca^2+ in the dendritic shafts of cultured Purkinje cells was accomplished by measuring the background corrected fluorescence ratio at 340 and 380 nm excitation using a cooled CCD camera system. In these experiments, EGTA was removed from the internal saline and replaced with 100 μM bis-Fura-2.

[2] = system: Purkinje cells cultured from embryonic mouse cerebellum; assay: LTD of glutamate-evoked inward current in cultured Purkinje cells (glutamate test pulses paired with depolarizing steps); type: cell-based; conditions: t=40 min; TAPI-2 10 μM, GM6001 1 μM, GM6001 control compound 1 μM; n=7
Procedure: as §1, §2
Other studies have shown that LTD in Purkinje cells cultured from embryonic mouse cerebellum requires activation of mGluR1, and is expressed postsynaptically as a reduction in surface AMPA receptors (Chung et al., Science 300:1751-5, 2003; Leitges et al., Neuron 44:585-94, 2004; Linden, PNAS 98:14066-71, 2001; Matsuda et al., EMBO J. 19:2765-74, 2000; Steinberg et al., Neuron 49:845-60, 2006; Wang and Linden, Neuron 25:635-47, 2000). Here, LTD was examined using a purely postsynaptic model in which iontophoretic test pulses of glutamate are applied to voltage-clamped Purkinje cells in culture. Following a baseline recording period, LTD was induced by pairing six 3 sec long depolarizing steps to 0 mV with six glutamate test pulses. When test pulses were resumed after pairing, LTD of the glutamate-evoked inward current was evident (52±9.0% of baseline at t=40 min, n=7 cells, FIG. 6A). […]

[3] = system: NPR cleavage at Site A (TACE); assay: NPR cleavage assay in transfected HEK293T cells; type: cell-based, rat; conditions: TAPI-2 50 μM; GM6001 25 μM
Procedure: Cleavage Assay HEK293T cells were plated in OptiMEM (Invitrogen, Carlsbad, Calif.) containing 5% FBS onto 6-well dishes at a density of 4×10^5 cells/mL (2 mL/well) 1 day before transfection. Cells were transfected with NPR in pRK5 using LipofectAMINE 2000 (Invitrogen, Carlsbad Calif.). After 24 hr the medium was replaced with serum-free OptiMEM. […] Samples from each well were obtained at specific time points, immediately placed on ice, centrifuged at 15,000 g to remove cell debris, and then treated with 2% β-mercaptoethanol containing loading buffer. At the end of the time course, the cells were lysed with RIPA buffer, centrifuged to remove cell debris, and treated with 2% β-mercaptoethanol in loading buffer. Samples (20 μL of medium or lysate diluted to 1/5) were run on SDS-PAGE gels and analyzed by Western blotting.

GluR1 = assay: Immunocytochemical staining of surface and internalized GluR1 in cultured hippocampal neurons; type: cell-based; conditions: 50 μM DFB added 5 min before DHPG stimulation
Procedure: Immunocytochemical staining. Immunocytochemical staining of heterologous cells was performed as described (Xu et al., supra). For PMA-stimulation experiments, PMA (Sigma Cat #: P8139) at (150 nM) was added 90 minutes prior to live staining. Images were viewed and captured using Nikon E800 epifluorescence microscope fitted with a Princeton Instruments CCD camera. For live staining, neurons cultured on coverslips were incubated at 10° C. with the appropriate primary antibodies at the indicated dilutions in conditioned culture medium for 20 min. They were then washed with PBS and fixed with 4% paraformaldehyde/4% sucrose in PBS for 20 min at room temperature. Cells were permeablized with 0.2% Triton X-100 in PBS for 5 min and then blocked in 10% normal goat serum in PBS for 1 hr at room temperature. If intracellular proteins were of interest, coverslips were then incubated with antibody diluted in 10% normal goat serum for 1 hr at room temperature or overnight at 4° C. Coverslips were washed with PBS and incubated with secondary antibody conjugated to Alexa488 and Alexa555 (1:500 in 10% normal goat serum, Molecular Probes Eugene, Oreg.). Coverslips were mounted using the Prolong Antifade Kit (Molecular Probes, Eugene, Oreg.). For immunocytochemistry studies, mGluR1/5 were activated using the selective agonist (S)-DHPG (Tocris Cat.# 0805) with mGluR5 allosteric potentiator DFB (Tocris Cat.#1625). Neurons were incubated with DFB (50 μM) for 5 min and then DHPG (50 μM) for an additional 5 min in neuronal incubation medium and then transferred into the original incubation medium. […] Cells were incubated at 37° C. to allow endocytosis. At indicated time points, cells were incubated with N-terminal GluR1 mouse antibody (JH 4093; 0.2 μg/100 μl; kind gift from T. […] (to block endocytosis during staining). Cells were then processed for immunofluorescent staining as described above. An acid strip protocol was employed to measure endocytosed antibody labeled GluR1 (Snyder et al., 2001). Neurons were washed with progressively cooler NIM to slow basal endocytosis. Cells were then live labeled at 10° C. with GluR1 N-terminal antibody (0.2 μg/100 μL JH4094) antibody in NIM for 20 min. After washing unbound excess antibody, cells were incubated sequentially with DFB, DHPG, and original incubation medium at 37° C., as described above. After appropriate incubation times, cells were washed with 4° C. TBS. […] Neurons were then washed with 4° C. TBS followed by processing for immunofluorescent staining as described above. All neurons were viewed and captured using UltraVIEW spinning disk confocal microscope (PerkinElmer Life Sciences, Wellesley, Mass., USA) with a Nikon Eclipse TE 200 microscope and a 63× objective (Nikon, Melville, N.Y.). Images were acquired and saved as Tiff files with a dynamic range of 65536 grey levels (16-bit binary). Image analysis was performed using Metamorph imaging software (Universal Imaging, Downingtown, Pa.). For quantification of the punctate structures (e.g. GluR1), images were thresholded by grey value to differentiate single puncta. Segments of dendrites were selected and number of puncta was calculated per […] of length dendrite. Figures show ratios of calculated mean densities (number of puncta per unit length) from treated/control. Error bars were calculated using SEM and Gaussian error propagation. n=number of measured dendrites. Significance was determined by paired Student's T-test.

Molecule | DHPG-evoked (dendritic Ca2+ transient) [1] [nM] | Depol-evoked (dendritic Ca2+ transient) [1] [nM] | Resting Ca2+ [1] [nM] | mEPSC 10-90% rise [1] [msec] | mEPSC 50% decay [1] [ms] | mEPSC amp [1] [pA] | glutamate-evoked inward current after LTD induction [2] | also measured
GST-G1-12mer: bacteria GST-tagged GluR1-12mer (LRRQRIDISRRG; also: GST tag, end not given here) | – | – | – | – | – | – | – | pull down of myc-tagged full length Narp (Narp; GST fusion proteins): pulls down Narp
CNC(=O)[C@H](Cc1c[nH]c2ccccc12)NC(=O)[C@@H](CC(=O)NO)CC(C)C [GM6001] | 268 ± 39 | 557 ± 65 | 123 ± 27 | 2.0 ± 0.3 | 8.0 ± 0.6 | 25 ± 6 | 106±8.4 % of baseline | PMA-stimulated cleavage at Site A / secretion of LFC-NPR into the medium [3]: inhibited
CNC(=O)C(Cc1c[nH]c2ccccc12)NC(=O)C(CC(C)C)NC(=O)OC(C)(C)C (stereo not drawn) [GM6001 control compound] | 277 ± 42 | 526 ± 55 | 100 ± 25 | 1.6 ± 0.3 | 7.6 ± 0.7 | 26 ± 6 | 48±9.8 % of baseline | –
G1-12mer peptide: synthetic 12 amino acid GluR1 NAR1 sequence, Narp binding motif LRRQRIDISRRG (SEQ ID NO:24) (listed as Homo sapiens) | – | – | – | – | – | – | – | in vitro binding between GST-G1-NarI and Narp (Narp; synthetic peptide added): blocked
Fc1cccc(C=NN=Cc2cccc(F)c2)c1 [DFB, 3,3′-difluorobenzaldazine] | – | – | – | – | – | – | – | consistency of the DHPG-evoked response (GluR1): increased the consistency of the DHPG-evoked response
